The target in assay [1] is T1, human recombinant CBL-b (human Biotin CBL-b recombinant protein a.a. 39-426) (Homo sapiens, UniProt Q13191).
T1 construct: human Biotin CBL-b recombinant protein a.a; 39-426; Biotin (biotinylated); made in house
As to the kind of experiment: Biochemical assay for CBL-b inhibition (ligand displacement TR-FRET). The following applies: 50 nM CBL-b, 0.3 μM Bodipy FL-Probe, read-out: IC50 (CBL-b inhibition, group). Type of assay: binding. An outline of the steps: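 Biotinylated CBL-b (a.a. 39-426, 50 nM final) pre-incubated with compound 60 min at RT in HEPES/NaCl/Triton/BSA/TCEP buffer, then Bodipy FL probe (0.3 μM final) 60 min, then terbium-streptavidin 60 min. TR-FRET read at 665/615 nm; IC50 and % max inhibition from sigmoidal fits.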

Assay [2] concerns NFAT signaling pathway in Jurkat NFAT reporter cells. As to the kind of experiment: Jurkat NFAT reporter assay. Type of assay: cell-based. The conditions noted are these: Homo sapiens, 30 min with compound, then soluble anti-human CD3/CD28 antibody for 6 hours, luciferase readout, read-out: EC50 (Group). The method, then:
A human T lymphocyte Jurkat reporter cell line was further used to assess activation of the nuclear factor of activated T-cells (NFAT) signaling pathway by Cbl-b inhibitors. The reporter cell line is a genetically engineered Jurkat T cell line that expresses a luciferase reporter driven by an NFAT-response element (NFAT-RE). The Cbl-b inhibitor was incubated with 1×10^5 Jurkat NFAT reporter cells per well for 30 minutes. Subsequently, cells were stimulated with soluble anti-human CD3/CD28 antibody for 6 hours resulting in NFAT-RE-mediated luminescence. The bioluminescent signal is detected and quantified using Bio-Glo™ Luciferase Assay System. Readouts were reported as fold change over baseline. Here, baseline was the measurement obtained from Jurkat NFAT reporter cells stimulated with anti-CD3 antibody and anti-CD28 antibody, where the cells were not incubated with a Cbl-b inhibitor.

The values below come from US20260226073A1 (AURIGENE ONCOLOGY LIMITED, priority 2023, published 2026).

T1 sequence (Q13191 39-426): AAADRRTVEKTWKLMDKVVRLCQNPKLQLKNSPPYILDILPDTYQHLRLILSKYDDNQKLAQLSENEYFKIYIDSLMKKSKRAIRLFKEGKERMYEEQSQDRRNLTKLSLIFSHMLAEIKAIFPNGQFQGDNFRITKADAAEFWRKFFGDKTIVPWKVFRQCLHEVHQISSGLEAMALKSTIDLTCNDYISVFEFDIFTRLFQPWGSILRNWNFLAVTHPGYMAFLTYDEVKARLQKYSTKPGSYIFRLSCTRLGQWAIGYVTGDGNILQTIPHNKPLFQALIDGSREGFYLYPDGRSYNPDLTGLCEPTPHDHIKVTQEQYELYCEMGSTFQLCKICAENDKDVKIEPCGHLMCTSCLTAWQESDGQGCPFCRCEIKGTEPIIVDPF

Regarding `CC(NCC1CC1(F)F)c1cc(Cl)nc(N2Cc3ccc(C4(Cc5nncn5C)COC4)cc3C2=O)c1` (single isomer, unassigned) [Compound 206, 2-(6-Chloro-4-(1-(((2,2-difluorocyclopropyl)methyl)amino)ethyl)pyridin-2-yl)-6-(3-((4-methyl-4H-1,2,4-triazol-3-yl)methyl)oxetan-3-yl)isoindolin-1-one], in assay [1], the IC50 was below 80 nM. In addition, the 50% effective concentration (EC50) in assay [2] was below 300 nM.
For the molecule `C[C@@H](NCC1CC1)c1cc(Cl)nc(N2Cc3ccc(-c4ccc(Cl)cc4-c4nncn4C)cc3C2=O)c1` (single isomer, unassigned) [Compound 110, 6-(4-Chloro-2-(4-methyl-4H-1,2,4-triazol-3-yl)phenyl)-2-(6-chloro-4-(1-((cyclo-propylmethyl)amino)ethyl)pyridin-2-yl)isoindolin-1-one], in assay [1], the half-inhibitory concentration (IC50) is below 80 nM. Also, in assay [2], the EC50 was below 300 nM.
For `Cn1cnnc1CC1(c2ccc3c(c2)C(=O)N(c2cc(CN4CCC5(CC4)CC5)cc(C(F)(F)F)n2)C3)COC1` [Compound 44, 2-(4-((6-Azaspiro[2.5]octan-6-yl)methyl)-6-(trifluoromethyl)pyridin-2-yl)-6-(3-((4-methyl-4H-1,2,4-triazol-3-yl)methyl)oxetan-3-yl)isoindolin-1-one] the same measures were 80 to 300 nM and 300 to 1000 nM.
For `Cn1cnnc1CC1(c2ccc3c(c2)C(=O)N(c2cc(CNCC4CC4)cc(Cl)n2)C3)CCC1` [Compound 145, 2-(6-Chloro-4-(((cyclopropylmethyl)amino)methyl)pyridin-2-yl)-6-(1-((4-methyl-4H-1,2,4-triazol-3-yl)methyl)cyclobutyl)isoindolin-1-one] the same measures were below 80 nM and below 300 nM.
For `CC(NC(C)(C)C1CC1)c1cc(Cl)nc(N2Cc3ccc(C4(Cc5nncn5C)COC4)cc3C2=O)c1` (stereo not shown) [Compound 248] the same measures were below 80 nM and below 300 nM.
On to `Cc1cc(CNCC2CC2)cc(N2Cc3c(F)cc(-c4ccc(F)cc4-c4nncn4C)cc3C2=O)n1` [Compound 296], for which the 50% inhibitory concentration (IC50) in assay [1] was below 80 nM. The EC50 in assay [2] lay within 1000 to 10000 nM.
Regarding `Cc1cc(CNCC2CC2)cc(N2Cc3ccc(-c4ccc(Cl)cc4-c4nncn4C)cc3C2=O)n1` [Compound 101, 6-(4-Chloro-2-(4-methyl-4H-1,2,4-triazol-3-yl)phenyl)-2-(4-(((cyclopropylmethyl)amino)methyl)-6-methylpyridin-2-yl)isoindolin-1-one], the IC50 in assay [1] was below 80 nM. For the same molecule, in assay [2], the EC50 was below 300 nM.
The corresponding values for `C[C@@H](NCc1cc(Cl)nc(N2Cc3ccc(C4(Cc5nncn5C)COC4)cc3C2=O)c1)C1CC1` (single isomer, unassigned) [Compound 224] are below 80 nM and 300 to 1000 nM.
The corresponding values for `Cc1cc(CNCC2CC2)cc(N2Cc3ccc(-c4ccc(Cl)cc4-c4nncn4C)cc3C2=O)c1` [Compound 280, 6-(4-Chloro-2-(4-methyl-4H-1,2,4-triazol-3-yl)phenyl)-2-(3-(((cyclopropyl-methyl)amino)methyl)-5-methylphenyl)isoindolin-1-one] are below 80 nM and 300 to 1000 nM.
The corresponding values for `Cc1cc(C(C)NCC2CC2)cc(N2Cc3ccc(-c4ccc(F)cc4-c4nncn4C)cc3C2=O)n1` (stereo not shown) [Compound 282, 2-(4-(1-((Cyclopropylmethyl)amino)ethyl)-6-methylpyridin-2-yl)-6-(4-fluoro-2-(4-methyl-4H-1,2,4-triazol-3-yl)phenyl)isoindolin-1-one] are below 80 nM and below 300 nM.
Take `Cn1cnnc1CC1(c2ccc3c(c2)C(=O)N(c2cc(CNCC4(C)CCC4)cc(Cl)n2)C3)COC1` [Compound 172, 2-(6-Chloro-4-((((1-methylcyclobutyl)methyl)amino)methyl)pyridin-2-yl)-6-(3-((4-methyl-4H-1,2,4-triazol-3-yl)methyl)oxetan-3-yl)isoindolin-1-one]: the IC50 in assay [1] is below 80 nM. Besides, the half-maximal effective concentration (EC50) in assay [2] was 300 to 1000 nM.
`COc1cc(CN2CCC[C@H](C)C2)cc(N2Cc3ccc(C4(Cc5nncn5C)COC4)cc3C2=O)c1` [Compound 5, (S)-2-(3-Methoxy-5-((3-methylpiperidin-1-yl)methyl)phenyl)-6-(3-((4-methyl-4H-1,2,4-triazol-3-yl)methyl)oxetan-3-yl)isoindolin-1-one]: the IC50 in assay [1] was 80 to 300 nM. Besides, the EC50 in assay [2] lay within 1000 to 10000 nM.
Regarding `C[C@@H](NCC1CC(F)(F)C1)c1cc(Cl)nc(N2Cc3ccc(C4(Cc5nncn5C)COC4)cc3C2=O)c1` (single isomer, unassigned) [Compound 221], in assay [1], the half-inhibitory concentration (IC50) was below 80 nM. The 50% effective concentration (EC50) in assay [2] is below 300 nM.
The corresponding values for `C[C@H](N[C@@H](C)C1CC1)c1cc(Cl)nc(N2Cc3ccc(C4(Cc5nncn5C)COC4)cc3C2=O)c1` (single isomer, unassigned) [Compound 246] are below 80 nM and below 300 nM.
The corresponding values for `Cn1cnnc1C[C@]1(c2ccc3c(c2)C(=O)N(c2cc(CNCC4CCC4)cc(Cl)n2)C3)C[C@H](C#N)C1` (single isomer, unassigned) [Compound 244, (1r,3r)-3-(2-(6-Chloro-4-(((cyclobutylmethyl)amino)methyl)pyridin-2-yl)-3-oxoisoindolin-5-yl)-3-((4-methyl-4H-1,2,4-triazol-3-yl)methyl)cyclobutane-1-carbonitrile] are below 80 nM and below 300 nM.
The corresponding values for `CC(NCC1CC(F)(F)C1)c1cc(Cl)nc(N2Cc3ccc(-c4ccc(Cl)cc4-c4nncn4C)cc3C2=O)c1` (stereo not shown) [Compound 121, 6-(4-Chloro-2-(4-methyl-4H-1,2,4-triazol-3-yl)phenyl)-2-(6-chloro-4-(1-(((3,3-difluorocyclobutyl)methyl)amino)ethyl)pyridin-2-yl)isoindolin-1-one] are below 80 nM and below 300 nM.
Turning to `Cn1cnnc1CC1(c2ccc3c(c2)C(=O)N(c2cc(CNCC4CCC4)cc(Cl)n2)C3)COC1` [Compound 144, 2-(6-Chloro-4-(((cyclobutylmethyl)amino)methyl)pyridin-2-yl)-6-(3-((4-methyl-4H-1,2,4-triazol-3-yl)methyl)oxetan-3-yl)isoindolin-1-one], the half-inhibitory concentration (IC50) in assay [1] is below 80 nM. Further, the EC50 in assay [2] was below 300 nM.
For `Cc1cc(CNCC2(O)CC2)cc(N2Cc3ccc(-c4ccc(F)cc4-c4nncn4C)cc3C2=O)n1` [Compound 311] the same measures were below 80 nM and 1000 to 10000 nM.
The corresponding values for `Cc1cc(CNCC2CC2)cc(N2Cc3ccc(-c4c(F)cc(F)cc4-c4nncn4C)cc3C2=O)n1` [Compound 262] are below 80 nM and below 300 nM.
The corresponding values for `Cn1cnnc1CC1(c2ccc3c(c2)C(=O)N(c2cc(CNc4nccs4)cc(Cl)n2)C3)COC1` [Compound 237] are below 80 nM and 1000 to 10000 nM.
As to `Cc1cc(C(C)(C)NCC2CC2)cc(N2Cc3ccc(-c4ccc(F)cc4-c4nncn4C)cc3C2=O)n1` [Compound 293, 2-(4-(2-((Cyclopropylmethyl)amino)propan-2-yl)-6-methylpyridin-2-yl)-6-(4-fluoro-2-(4-methyl-4H-1,2,4-triazol-3-yl)phenyl)isoindolin-1-one], the half-inhibitory concentration (IC50) in assay [1] was below 80 nM. Besides, in assay [2], the concentration for a half-maximal effect (EC50) was 300 to 1000 nM.
The corresponding values for `Cn1cnnc1CC1(c2ccc3c(c2)C(=O)N(c2cc(CNCC4CC4(F)F)cc(Cl)n2)C3)COC1` (stereo not shown) [Compound 175, 2-(6-Chloro-4-((((2,2-difluorocyclopropyl)methyl)amino)methyl)pyridin-2-yl)-6-(3-((4-methyl-4H-1,2,4-triazol-3-yl)methyl)oxetan-3-yl)isoindolin-1-one] are below 80 nM and 300 to 1000 nM.
On to `CCC(NC1CCCC1)c1cc(Cl)nc(N2Cc3ccc(C4(Cc5nncn5C)COC4)cc3C2=O)c1` (stereo not shown) [Compound 251, 2-(6-Chloro-4-(1-(cyclopentylamino)propyl)pyridin-2-yl)-6-(3-((4-methyl-4H-1,2,4-triazol-3-yl)methyl)oxetan-3-yl)isoindolin-1-one], for which the concentration for half-maximal inhibition (IC50) in assay [1] is below 80 nM. Also, in assay [2], the concentration giving a half-maximal response (EC50) was below 300 nM.
For `Cc1cc(CNCC2CCCC2)cc(N2Cc3ccc(-c4ccc(F)cc4-c4nncn4C)cc3C2=O)n1` [Compound 329, 2-(4-(((Cyclopentylmethyl)amino)methyl)-6-methylpyridin-2-yl)-6-(4-fluoro-2-(4-methyl-4H-1,2,4-triazol-3-yl)phenyl)isoindolin-1-one] the same measures were below 80 nM and below 300 nM.
Consider `Cc1cc(CNCC2CC2)cc(N2Cc3ccc(-c4ccc(F)cc4-c4nccn4C)cc3C2=O)n1` [Compound 304], for which, in assay [1], the half-maximal inhibitory concentration (IC50) was below 80 nM. Besides, the half-maximal effective concentration (EC50) in assay [2] fell in the range of 1000 to 10000 nM.
For `CC(NCC1CCC1)c1cc(Cl)nc(N2Cc3ccc(C4(Cc5nncn5C)COC4)cc3C2=O)c1` (single isomer, unassigned) [Compound 213, 2-(6-Chloro-4-(1-((cyclobutylmethyl)amino)ethyl)pyridin-2-yl)-6-(3-((4-methyl-4H-1,2,4-triazol-3-yl)methyl)oxetan-3-yl)isoindolin-1-one] the same measures were below 80 nM and below 300 nM.
